Measurements: patent US11365177B2, “Chemical uncouplers of respiration and methods of use thereof” (Dana-Farber Cancer Institute, Inc., priority 2017, dated 2022)

Experiments:
C2C12 cells = assay: Measurement of cellular respiration (Seahorse), uncoupling bioactivity; format: cell-based; conditions: Mus musculus, Table 5, cyclic head groups, 50 μM compound, maximal increase versus basal oligomycin-treated respiration, means SEM, n=3-6/group, read-out: % stimulation of respiration (baseline = 100%)
Protocol: Oligomycin was purchased from EMD Millipore, and FCCP and rotenone were purchased from Sigma. C2C12 cells were seeded at 35,000 cells/well in an XF24 cell culture microplate (V7-PS, Seahorse Bioscience) and analyzed the following day. On the day of analysis, the cells were washed once with Seahorse respiration buffer (8.3 g/l DMEM, 1.8 g/l NaCl, 1 mM pyruvate, 20 mM glucose, pen/strep), placed in 0.5 ml Seahorse respiration buffer, and incubated in a CO2-free incubator for 1 h. Port injection solutions were prepared as follows (final concentrations in assay in parentheses): 10 μM oligomycin (1 μM final), 500 μM indicated compound (50 μM final), 2 μM FCCP (0.2 μM final), and 30 μM rotenone (3 μM final). The Seahorse program was run as follows: basal measurement, 3 cycles; inject port A (oligomycin), 3 cycles; inject port B (compounds), 8 cycles; inject port C (FCCP), 3 cycles; inject port D (rotenone), 3 cycles. Each cycle consisted of mix 2 min, wait 0 min, and measure 2 min. For data expressed as a percentage of oligomycin-treated basal, the respiration at cycle 6 was normalized to 100%, and the maximum respiration at any time point between cycles 7 and 15 inclusive was used.
Tables 1-4 show uncoupling bioactivity of compounds of the disclosure with different fatty acid side chains. Respiration in C2C12 cells is shown as maximal increases versus basal oligomycin-treated respiration, which is normalized to 100%. Data are shown as means SEM, n=3-6/group.

DIO mice = assay: Treatment of DIO mice with compound: body weight and food intake; format: in vivo
Protocol: DIO mice (19 weeks, males, stock #380050) were purchased from The Jackson Laboratory. Mice were maintained on a high fat diet for the duration of the experiment (60% fat, Research Diets). Prior to compound administration, mice were mock injected with vehicle (18:1:1 v/v/v saline:DMSO:Kolliphor EL, intraperitoneal) for 4 days. Compound 33 was prepared in the same vehicle and administered at 5 μl/g body weight at the indicated doses. Administration of vehicle of compound occurred once per day. Data shown in FIG. 4A compared changes in body weights of representative mice at day 7 versus initial weight on day 0. Data shown in FIG. 4B represented average food intake per mouse over the 7 day dosing period for each treatment group.

[1] = Plasma concentration after compound administration in DIO mice; format: in vivo; conditions: 10 mg/kg, 1 hour after administration, FIG. 5
Protocol: DIO mice (19 weeks, males, stock #380050) were purchased from The Jackson Laboratory. Prior to compound administration, mice were mock injected with vehicle (18:1:1 v/v/v saline:DMSO:Kolliphor EL) for 4 days. Compounds 33 and 37 were prepared in the same vehicle and administered at 10 mg/kg doses. Plasma concentration was measured 1 hour after compound administration.

[2] = Liver microsome stability assay; format: in vitro ADME; conditions: mouse liver microsomes 1 mg/mL, 1 μM compound, NADPH, pH 7.4, 37 C; FIG. 3
Protocol: The compounds were evaluated in a mouse liver microsome assay.
Microsome stability was evaluated by incubating 1 μM test compound with 1 mg/mL hepatic microsomes in 100 mM KPi, pH 7.4 at 37 C with shaking. The reaction was initiated by adding NADPH (1 mM final concentration). Aliquots were removed at 0, 5, 10, 20, 40, and 60 minutes and added to acetonitrile (5× v:v) to stop the reaction and precipitate the protein. NADPH dependence of the reaction was evaluated with -NADPH samples. At the end of the assay, the samples were centrifuged through a Millipore Multiscreen Solvinter 0.45 micron low binding PTFE hydrophilic filter plate and analyzed by LC-MS/MS. Data is log transformed and represented as half-life.

mPM20D1 = biological target: T1, mPM20D1 (Mus musculus, UniProt Q8C165); assay: PM20D1 hydrolysis assay; format: in vitro ADME, murine; conditions: 10 nmol compound in 100 μl PBS, mPM20D1, 1 h at 37° C., LC-MS; FIG. 2
T1 construct: host or cells: 293T cells (secreted into serum-free conditioned media)
T1 sequence (Q8C165 25-503): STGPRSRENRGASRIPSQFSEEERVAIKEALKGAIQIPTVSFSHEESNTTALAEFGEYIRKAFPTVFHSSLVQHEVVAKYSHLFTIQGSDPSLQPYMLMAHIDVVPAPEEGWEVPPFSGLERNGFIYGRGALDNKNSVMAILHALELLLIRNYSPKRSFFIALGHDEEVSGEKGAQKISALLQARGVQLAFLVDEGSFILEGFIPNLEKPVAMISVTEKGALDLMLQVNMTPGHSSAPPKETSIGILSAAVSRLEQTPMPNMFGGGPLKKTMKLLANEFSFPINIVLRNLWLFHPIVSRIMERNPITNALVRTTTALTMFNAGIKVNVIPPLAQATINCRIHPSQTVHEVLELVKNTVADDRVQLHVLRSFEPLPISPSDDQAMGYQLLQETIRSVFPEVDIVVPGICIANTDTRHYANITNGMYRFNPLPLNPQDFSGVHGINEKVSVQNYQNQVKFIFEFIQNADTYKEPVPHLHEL
Protocol: Three 10 cm plates of 293T cells were transiently transfected with murine PM20D1-6×His-Flag plasmid (Addgene plasmid #84566) using PolyFect according to the manufacturer's instructions. After 48 h, cells were washed twice in PBS and switched to serum free DMEM with penicillin and streptomycin. Serum free conditioned media was collected 24 h later and concentrated ˜10-fold in 30 kDa MWCO filters (EMD Millipore) according to the manufacturer's instructions. The concentrated media was centrifuged to remove debris (600×g, 10 min, 4° C.) and the supernatant containing PM20D1-flag was decanted into a new tube. PM20D1-flag was immunoaffinity purified overnight at 4° C. from the concentrated media using magnetic Flag-M2 beads (Sigma Aldrich). The beads were collected, washed three times in PBS, eluted with 3× Flag peptide ([…] in PBS, Sigma Aldrich), aliquoted, and stored at −80° C.
10 nmol of the indicated compound was incubated in 100 μl PBS (100 VM initial substrate). Reactions were initiated by the addition of PBS or mPM20D1 (5 μl). After 1 h at 37° C., reactions were quenched with […] of a 2:1 v/v mixture of chloroform and methanol with 10 nmol d31-palmitate as an internal standard. The reactions were vortexed and the organic layer was transferred to a sample vial for analysis by LC-MS. For separation of polar metabolites, normal-phase chromatography was performed with a Luna-[…] NH2 column (50 mm×4.60 mm, Phenomenex). Mobile phases were as follows: Buffer A, acetonitrile; Buffer B, 95:5 water/acetonitrile with 0.1% formic acid or 0.2% ammonium hydroxide with 50 mM ammonium acetate for positive and negative ionization mode, respectively. The flow rate for each run started at 0.2 ml/min for 2 min, followed by a gradient starting at 0% B and increasing linearly to 100% B over the course of 15 min with a flow rate of 0.7 ml/min, followed by an isocratic gradient of 100% B for 10 min at 0.7 ml/min before equilibrating for 5 min at 0% B with a flow rate of 0.7 ml/min. MS analysis was performed with an electrospray ionization (ESI) source on an Agilent 6430 QQQ LC-MS/MS. The capillary voltage was set to 3.5 kV, and the fragmentor voltage was set to 100 V. The drying gas temperature was 325° C., the drying gas flow rate was 10 l/min, and the nebulizer pressure was 45 psi. Monitoring of hydrolysis starting materials and products was performed by scanning a mass range of m/z 50-1200. Peaks corresponding to the liberated fatty acids (products) or the intact starting material was integrated.

With `CCCCCCCC/C=C\CCCCCCCC(=O)N1Cc2ccccc2[C@H]1C(=O)O` [Compound 33, (S)-2-Oleoylisoindoline-1-carboxylic acid] the activity at 50 µM (C2C12 cells) was 240 ± 24%, the “uncoupling bioactivity in vivo” value (DIO mice; DIO mice on high fat diet, intraperitoneal, once per day) was “possesses uncoupling bioactivity in vivo” and the “average food consumed per mouse per day” value (DIO mice; DIO mice, different treatment groups, 7 day dosing period, FIG. 4B) was “consumed the same amount of food per mouse per day”. For the same compound, the “change in body weight from the initial weight” value (DIO mice; DIO mice, higher doses, once per day, day 7 versus day 0, FIG. 4A) was “statistically significant weight loss over time”, the “pharmacokinetic properties in vivo (plasma concentration)” value [1] was “augmented pharmacokinetic properties in vivo” and the “microsome stability (in vitro half-life)” value [2] was “long in vitro half-lives”. The “hydrolysis by PM20D1” value (mPM20D1) was “entirely resistant to hydrolysis by PM20D1”.
In the case of `CCCCC/C=C\C/C=C\CCCCCCCC(=O)N1Cc2ccccc2[C@@H]1C(=O)O` [Compound 37, (R)-2-((9Z,12Z)-Octadeca-9,12-dienoyl)isoindoline-1-carboxylic acid], the activity at 50 µM (C2C12 cells) is reported as 190 ± 12%, the “pharmacokinetic properties in vivo (plasma concentration)” value [1] is reported as “augmented pharmacokinetic properties in vivo” and the “microsome stability (in vitro half-life)” value [2] is reported as “long in vitro half-lives”. The “hydrolysis by PM20D1” value (mPM20D1) was “entirely resistant to hydrolysis by PM20D1”.
For `CCCCC/C=C\C/C=C\CCCCCCCC(=O)N1Cc2ccccc2[C@H]1C(=O)O` [Compound 36, (S)-2-((9Z,12Z)-Octadeca-9,12-dienoyl)isoindoline-1-carboxylic acid], the activity at 50 µM (C2C12 cells) was 185 ± 18%, the “microsome stability (in vitro half-life)” value [2] was “long in vitro half-lives” and the “hydrolysis by PM20D1” value (mPM20D1) was “entirely resistant to hydrolysis by PM20D1”.
With `CCCCCCCC/C=C\CCCCCCCC(=O)N1Cc2ccccc2[C@@H]1C(=O)O` [Compound 34, (R)-2-Oleoylisoindoline-1-carboxylic acid] the activity at 50 µM (C2C12 cells) was 190 ± 12%, the “microsome stability (in vitro half-life)” value [2] was “long in vitro half-lives” and the “hydrolysis by PM20D1” value (mPM20D1) was “entirely resistant to hydrolysis by PM20D1”.
